Columns and labels:
Assay in all cases: Activity against lenalidomide resistant cell lines
Assay type in all cases: cell-based
1053 = settings: 1053, n = 3
Protocol: (§1) The ability of compounds to effect the proliferation of MM cell lines was investigated in an in vitro study. Uptake of [^3H]-thymidine by H929 MM cells and 7-AAD uptake in several MM cell lines (H929, U266B1, Anbl-6, KMS-34, OPM-2, DF-15, DF15/R, CAG, MM1.S and LP-1) was measured as an indicator of cell proliferation. Cells were incubated in the presence of compounds for 72 hours ([^3H]-thymidine was included for the last 6 hours of the incubation period) or 5 days followed by 7-AAD uptake to measure and count viable cells.

H929 = settings: Homo sapiens, NCI-H929; H929, n = 3
Protocol: as §1

1052 = settings: 1052, n = 3
Protocol: as §1

1054 = settings: 1054, n = 3
Protocol: as §1

D1 = settings: D1, n = 3
Protocol: as §1

1051 = settings: 1051, n = 3
Protocol: as §1

`Nc1cccc2c1CN(C1CCC(=O)NC1=O)C2=O` (stereo not drawn) [Lenolidomide, Lenalidomide, reference compound] was tested, and the IC50 1053 was “No IC50”, the IC50 (H929) was 12.6 µM and the IC50 1052 was “No IC50”. The IC50 1054 was “No IC50”, the IC50 (D1) was “No IC50” and the IC50 1051 was “No IC50”.

Source: patent publication US20180055844A1 (Celgene Corporation, priority 2011, published 2018)
